# ChEMBL document CHEMBL5113383, “Application of the All-Hydrocarbon Stapling Technique in the Design of Membrane-Active Peptides” (J Med Chem, 2022)
# Positions of bridges follow the written chain, without caps; N, C: chain ends. Non-standard residues stand in square brackets, D forms with d. Residues, ends and D or L forms follow the SMILES beside them. S5 = C=CCCC[C@](C)(N)C(=O)O
# Experiments:
# [Candida] auris [1] = Antimicrobial activity against Candida auris 918; assay type: functional; conditions: Candidozyma auris
# Candida parapsilosis = assay: Antimicrobial activity against Candida parapsilosis ATCC 22010; assay type: functional; conditions: Lodderomyces parapsilosis
# Pichia kudriavzevii = assay: Antimicrobial activity against Candida krusei ATCC 2340; assay type: functional
# Candida albicans [2] = assay: Antimicrobial activity against Candida albicans 901; assay type: functional
# [Candida] auris [3] = Antimicrobial activity against Candida auris 919; assay type: functional; conditions: Candidozyma auris
# Candida tropicalis [4] = assay: Antimicrobial activity against Candida tropicalis 895; assay type: functional
# Candida tropicalis [5] = assay: Antimicrobial activity against Candida tropicalis ATCC 20026; assay type: functional
# Candida albicans [6] = assay: Antimicrobial activity against Candida albicans 904; assay type: functional
# Candida albicans [7] = assay: Antimicrobial activity against Candida albicans SC5314; assay type: functional
# Nakaseomyces glabratus [8] = assay: Antimicrobial activity against Candida glabrata 896; assay type: functional
# Nakaseomyces glabratus [9] = assay: Antimicrobial activity against Candida glabrata ATCC 1182; assay type: functional
# [10] = Hemolytic activity in human erythrocytes incubated for 30 mins; assay type: toxicity, cell-based, Erythrocyte
Compound,MIC ([Candida] auris [1]),MIC (Candida parapsilosis),MIC (Pichia kudriavzevii),MIC (Candida albicans [2]),MIC ([Candida] auris [3]),MIC (Candida tropicalis [4]),MIC (Candida tropicalis [5]),MIC (Candida albicans [6]),MIC (Candida albicans [7]),MIC (Nakaseomyces glabratus [8]),MIC (Nakaseomyces glabratus [9]),HC50 at 0.5 h [10]
CC[C@H](C)[C@@H]1NC(=O)[C@@](C)(NC(=O)[C@H](CC(=O)O)NC(=O)[C@H](Cc2ccccc2)NC(=O)[C@H](CC(C)C)NC(=O)CNC(C)=O)CCC/C=C\CCC[C@@](C)(C(=O)N[C@@H](C)C(=O)N[C@@H](CCC(=O)O)C(=O)N[C@@H](CO)C(=O)N[C@@H](Cc2ccccc2)C(N)=O)NC(=O)[C@H](CCCCN)NC(=O)[C@H](CCCCN)NC1=O (Ac-GLFD[S5]IKK[S5]AESF-NH2; staple (Z) 5-9),> 128 µg/mL,> 128 µg/mL,> 128 µg/mL,> 128 µg/mL,> 128 µg/mL,16 µg/mL,> 128 µg/mL,> 128 µg/mL,16 µg/mL,> 128 µg/mL,> 128 µg/mL,
CC[C@H](C)[C@H](NC(=O)[C@H](CCCCN)NC(=O)[C@]1(C)CCC/C=C\CCC[C@](C)(NC(=O)[C@H](CC(C)C)NC(=O)CNC(C)=O)C(=O)N[C@@H](CC(=O)O)C(=O)N[C@@H]([C@@H](C)CC)C(=O)N[C@@H]([C@@H](C)CC)C(=O)N1)C(=O)N[C@@H](C)C(=O)N[C@@H](CCC(=O)O)C(=O)N[C@@H](CO)C(=O)N[C@@H](Cc1ccccc1)C(N)=O (Ac-GL[S5]DII[S5]KIAESF-NH2; staple (Z) 3-7),> 128 µg/mL,> 128 µg/mL,> 128 µg/mL,> 128 µg/mL,> 128 µg/mL,> 128 µg/mL,> 128 µg/mL,> 128 µg/mL,> 64 µg/mL,> 128 µg/mL,> 128 µg/mL,
CC[C@H](C)[C@H](NC(=O)[C@H](CCCCN)NC(=O)[C@H](CCCCN)NC(=O)[C@]1(C)CCC/C=C\CCC[C@](C)(NC(=O)CNC(C)=O)C(=O)N[C@@H](Cc2ccccc2)C(=O)N[C@@H](CC(=O)O)C(=O)N[C@@H]([C@@H](C)CC)C(=O)N1)C(=O)N[C@@H](C)C(=O)N[C@@H](CCC(=O)O)C(=O)N[C@@H](CO)C(=O)N[C@@H](Cc1ccccc1)C(N)=O (Ac-G[S5]FDI[S5]KKIAESF-NH2; staple (Z) 2-6),> 128 µg/mL,> 128 µg/mL,> 128 µg/mL,> 128 µg/mL,> 128 µg/mL,16 µg/mL,> 128 µg/mL,> 128 µg/mL,> 64 µg/mL,128 µg/mL,> 128 µg/mL,
CC(=O)N[C@@H](CCCCN)C(=O)N[C@@]1(C)CCC/C=C\CCC[C@@](C)(C(=O)N[C@@H](CCCCN)C(N)=O)NC(=O)[C@H](C)NC(=O)[C@H](CCCCN)NC(=O)[C@H](Cc2c[nH]c3ccccc23)NC1=O (Ac-K[S5]WKA[S5]K-NH2; staple (Z) 2-6),,,,,,,,,,,,1400 nM
CC(=O)N[C@@H](CCCCN)C(=O)N[C@@]1(C)CCC/C=C\CCC[C@@](C)(C(=O)N[C@@H](CCCCN)C(N)=O)NC(=O)[C@H](CC(C)C)NC(=O)[C@H](CCCCN)NC(=O)[C@H](Cc2c[nH]c3ccccc23)NC1=O (Ac-K[S5]WKL[S5]K-NH2; staple (Z) 2-6),,,,,,,,,,,,< 1000 nM
CC[C@H](C)[C@H](NC(=O)[C@H](CCCCN)NC(=O)[C@H](CCCCN)NC(=O)[C@@H](NC(=O)[C@]1(C)CCC/C=C\CCC[C@](C)(NC(C)=O)C(=O)N[C@@H](CC(C)C)C(=O)N[C@@H](Cc2ccccc2)C(=O)N[C@@H](CC(=O)O)C(=O)N1)[C@@H](C)CC)C(=O)N[C@@H](C)C(=O)N[C@@H](CCC(=O)O)C(=O)N[C@@H](CO)C(=O)N[C@@H](Cc1ccccc1)C(N)=O (Ac-[S5]LFD[S5]IKKIAESF-NH2; staple (Z) 1-5),> 128 µg/mL,128 µg/mL,> 128 µg/mL,32 µg/mL,> 128 µg/mL,> 128 µg/mL,> 128 µg/mL,> 128 µg/mL,> 64 µg/mL,> 128 µg/mL,> 128 µg/mL,
CC[C@H](C)[C@H](NC(=O)[C@H](CC(=O)O)NC(=O)[C@H](Cc1ccccc1)NC(=O)[C@H](CC(C)C)NC(=O)CN)C(=O)N[C@H](C(=O)N[C@@H](CCCCN)C(=O)N[C@@]1(C)CCC/C=C\CCC[C@@](C)(C(=O)N[C@@H](Cc2ccccc2)C(N)=O)NC(=O)[C@H](CCC(=O)O)NC(=O)[C@H](C)NC(=O)[C@H]([C@@H](C)CC)NC1=O)[C@@H](C)CC (H-GLFDIIK[S5]IAE[S5]F-NH2; staple (Z) 8-12),> 128 µg/mL,> 128 µg/mL,> 128 µg/mL,> 128 µg/mL,> 128 µg/mL,> 128 µg/mL,> 128 µg/mL,> 128 µg/mL,> 64 µg/mL,> 128 µg/mL,> 128 µg/mL,
CC[C@H](C)[C@@H]1NC(=O)[C@H](CCCCN)NC(=O)[C@@](C)(NC(=O)[C@@H](NC(=O)[C@@H](NC(=O)[C@H](CC(=O)O)NC(=O)[C@H](Cc2ccccc2)NC(=O)[C@H](CC(C)C)NC(=O)CN)[C@@H](C)CC)[C@@H](C)CC)CCC/C=C\CCC[C@@](C)(C(=O)N[C@@H](CO)C(=O)N[C@@H](Cc2ccccc2)C(N)=O)NC(=O)[C@H](C)NC1=O (H-GLFDII[S5]KIA[S5]SF-NH2; staple (Z) 7-11),> 128 µg/mL,> 128 µg/mL,> 128 µg/mL,> 128 µg/mL,> 128 µg/mL,> 128 µg/mL,> 128 µg/mL,> 128 µg/mL,> 64 µg/mL,> 128 µg/mL,> 128 µg/mL,
CC[C@H](C)[C@H](NC(=O)[C@H](CC(=O)O)NC(=O)[C@H](Cc1ccccc1)NC(=O)[C@H](CC(C)C)NC(=O)CN)C(=O)N[C@@]1(C)CCC/C=C\CCC[C@@](C)(C(=O)N[C@@H](CCC(=O)O)C(=O)N[C@@H](CO)C(=O)N[C@@H](Cc2ccccc2)C(N)=O)NC(=O)[C@H]([C@@H](C)CC)NC(=O)[C@H](CCCCN)NC(=O)[C@H](CCCCN)NC1=O (H-GLFDI[S5]KKI[S5]ESF-NH2; staple (Z) 6-10),> 128 µg/mL,> 128 µg/mL,> 128 µg/mL,> 128 µg/mL,> 128 µg/mL,> 128 µg/mL,> 128 µg/mL,> 128 µg/mL,> 64 µg/mL,> 128 µg/mL,> 128 µg/mL,
CC[C@H](C)[C@@H]1NC(=O)[C@H]([C@@H](C)CC)NC(=O)[C@@](C)(NC(=O)[C@H](Cc2ccccc2)NC(=O)[C@H](CC(C)C)NC(=O)CN)CCC/C=C\CCC[C@@](C)(C(=O)N[C@H](C(=O)N[C@@H](C)C(=O)N[C@@H](CCC(=O)O)C(=O)N[C@@H](CO)C(=O)N[C@@H](Cc2ccccc2)C(N)=O)[C@@H](C)CC)NC(=O)[C@H](CCCCN)NC1=O (H-GLF[S5]IIK[S5]IAESF-NH2; staple (Z) 4-8),> 128 µg/mL,> 128 µg/mL,> 128 µg/mL,> 128 µg/mL,> 128 µg/mL,> 128 µg/mL,> 128 µg/mL,> 128 µg/mL,> 64 µg/mL,> 128 µg/mL,> 128 µg/mL,
OC(Cn1cncn1)(Cn1cncn1)c1ccc(F)cc1F [FLUCONAZOLE],> 128 µg/mL,1 µg/mL,64 µg/mL,> 64 µg/mL,> 128 µg/mL,> 128 µg/mL,1 µg/mL,> 64 µg/mL,0.5 µg/mL,> 128 µg/mL,2 µg/mL,
Ac-GLFDIIKKIAESF-NH2,> 128 µg/mL,> 128 µg/mL,> 128 µg/mL,> 128 µg/mL,> 128 µg/mL,> 128 µg/mL,> 128 µg/mL,> 128 µg/mL,> 64 µg/mL,> 128 µg/mL,> 128 µg/mL,
